From patent US9034848B2, “Phenyl carbamate compounds for use in preventing or treating stroke” (Bio-Pharm Solutions Co., Ltd., priority 2011, dated 2015)

Assays:
Type in all cases: in vivo
SD rats [1] = experiment: Permanent middle cerebral artery occlusion (pMCAO) model, TTC-stained infarct area; conditions: 60 mg/kg i.p. b.i.d.; for infraction areas compared with control (neuro-therapeutic): 1st inj. 0.25 hr after occlusion, 8 hr interval, occlusion 1, 3, 7 days
SD rats [2] = experiment: Transient middle cerebral artery occlusion (tMCAO) model, TTC-stained infarct area; conditions: 2 hr occlusion, 24 hr reperfusion; for infraction areas compared with control (neuro-therapeutic): 60 mg/kg i.p. 15 minutes after occlusion; for infraction areas compared with control (neuro-prevention): 60 mg/kg i.p. 15 minutes before occlusion
Experimental: 1.1. Neuro-Prevention Study of Transient MCAO (tMCAO) Model
Male, SD rats weighing 290-300 g were purchased from Nara Bio Tech. (Pyoung-tek, Korea) Animals were maintained with laboratory animal food and water ad libitum in an animal facility with a 12 h light/dark cycle at a controlled temperature (23±2° C.) until used. All animal experiments were carried out in accordance with the Korean Academy of Medical Sciences Guide for Care and Use of Laboratory Animals.
The rats were anesthetized with isoflurane (Hana-phram., Korea) and anesthesia machine was set to 1.0 L/min N2O (Surgi-Vet, USA). Isoflurane and N2O gas ratio was 3:3 for induction anesthesia, and lower to 2:1 (isoflurane:N2O) to maintain anesthesia. Body temperature was monitored continuously by a rectal thermo meter probe and maintained at 37±0.5° C. by placing the animals on a heating pad (Jung-do B&P, Korea). The MCA (middle cerebral artery) occlusion was induced by the procedure of Longa et al. (1989) with minor modifications. Briefly, surgical nylon suture thread (4-0, Diameter: 0.39 mm, Coating length: 0.56 mm, Doccol suture, USA) with a round tip was advanced from the external carotid artery (ECA) into the lumen of the internal carotid artery (ICA) to occlude the origin of the MCA. The wound was closed, and the animals were allowed to home cage for recover.
Priority, the infraction areas when the compound of Example 1 was treated at various time points were measured for peak time when is the best efficacy time (see FIG. 1). And then, rats received 60 mg/kg dose of each compound of Examples 1, 65 and 67, intraperitoneally (i.p.) at 15 minutes before MCA occlusion (see FIG. 2, animal numbers of each compound of Examples 1 (n=8), 65 (n=5) and 67 (n=6)). All compounds were dissolved in 30% polyethylene glycol (Compound of Example 1) or 20% (w/v) Tween 80 (Compounds of Examples 65 and 67) once in volume of 4 ul/g bw. Control group (n=33) was identical to those in the MCA occlusion rats except for injection of vehicle (4 ul/g bw of 30% (w/v) polyethylene glycol or 20% (w/v) Tween 80, intraperitoneally (i.p.)). Two hours after MCA occlusion, reperfusion was accomplished by pulling the suture thread back to the bifurcation until the tip cleared the ICA.
The experimentation was identical performed as described in Experimental Example 1.1, except that each compound examples of 1, 65 and 67 was administered at 15 minutes after MCA occlusion (FIG. 3, animal numbers of each compound of Examples 1 (n=7), 65 (n=6) and 67 (n=5)), to test the therapeutic effect of the compounds. Control group (n=33) was identical to those in the MCA occlusion rats except for injection of vehicle (4 ul/g bw of 30% polyethylene glycol or 20% Tween 80, intraperitoneally (i.p.)).
After 24 hours of reperfusion, rats were anesthetized with isoflurane (Hana-phram., Korea). The brain was then quickly removed and cut into 2-mm thick coronal block slices in brain matrix. The slices were immersed in a 2% (w/v) solution of 2,3,5-triphenyltetrazolium chloride (TTC) in normal saline at 37° C. for 10 min and then fixed in 10% (v/v) formalin solution at room temperature for overnight. The TTC stained brain slices were photographed using a digital camera (5000D, Nikon, Japan). The size of infarct was calculated with an image analysis system (Image-Pro Plus 4.0, Media Cybernetics, USA) and measurement of infarct area were expressed as the percentage (% control) of infarct area in reference to the compared with ipsilateral hemisphere of control group (see FIGS. 2 and 3).
Statistical analysis results are presented as the mean±S.E.M. and measures analysis of variance was used for comparison of the results of hemispheric infarct area, obtained from 5˜33 rats in each group. Data were analyzed by either one-way analysis of variance (ANOVA) followed by Tukey's test for multiple comparisons. p values less than 0.05 were considered to be statistically significant (see FIGS. 1 and 4).

mice = experiment: MES test (anti-excitotoxicity activity); conditions: Mus musculus, po, 4 mice, read-out: MES test(po) Protection %; for responders at 100 mg/kg: injection amount 100 mg/kg

## C[C@H](OC(N)=O)[C@@H](O)c1ccccc1Cl [Compound 1, 1-(2-chlorophenyl)-(S)-1-hydroxypropyl-(S)-2-carbamate]
SD rats [1]
  infraction areas compared with control (neuro-therapeutic): significantly reduced
SD rats [1]; 1st inj. 1 hr after occlusion, occlusion for 3 days
  neuro-therapeutic effect, TTC-stained infarction area: neuro-therapeutic effect
SD rats [2]
  infraction areas compared with control (neuro-therapeutic): significantly reduced
  infraction areas compared with control (neuro-prevention): significantly reduced

## CCCC[C@H](OC(N)=O)[C@@H](O)c1ccccc1Cl [Compound 12, 1-(2-chlorophenyl)-(S)-1-hydroxyhexyl-(S)-2-carbamate]
mice
  responders at 100 mg/kg: 75%

## CCCC[C@@H](OC(N)=O)[C@H](O)c1ccccc1Cl [Compound 13, 1-(2-chlorophenyl)-(R)-1-hydroxyhexyl-(R)-2-carbamate]
mice; injection amount 200 mg/kg
  responders at 200 mg/kg: 75%

## CCCC[C@H](OC(N)=O)[C@@H](O)c1ccc(Cl)cc1Cl [Compound 43, 1-(2,4-dichlorophenyl)-(S)-1-hydroxyhexyl-(S)-2-carbamate]
mice
  responders at 100 mg/kg: 25%

## CCCC[C@H](OC(N)=O)[C@@H](O)c1c(Cl)cccc1Cl [Compound 44, 1-(2,6-dichlorophenyl)-(S)-1-hydroxyhexyl-(S)-2-carbamate]
mice
  responders at 100 mg/kg: 75%

## C[C@H](OC(N)=O)[C@@H](O)c1ccccc1I [Compound 65, 1-(2-iodophenyl)-(S)-1-hydroxypropyl-(S)-2-carbamate]
mice; injection amount 50 mg/kg
  responders at 50 mg/kg: 100%
SD rats [1]
  infraction areas compared with control (neuro-therapeutic): neuro-therapeutic effects
SD rats [2]
  infraction areas compared with control (neuro-therapeutic): significantly reduced
  infraction areas compared with control (neuro-prevention): significantly reduced

## CC[C@H](OC(N)=O)[C@@H](O)c1ccccc1I [Compound 67, 1-(2-iodophenyl)-(S)-1-hydroxybutyl-(S)-2-carbamate]
mice
  responders at 100 mg/kg: 100%
SD rats [1]
  infraction areas compared with control (neuro-therapeutic): neuro-therapeutic effects
SD rats [2]
  infraction areas compared with control (neuro-therapeutic): significantly reduced
  infraction areas compared with control (neuro-prevention): significantly reduced
